Data reported in patent publication US20260355120A1, “"GOOD" BUFFER-BASED CATIONIC LIPIDS FOR NUCLEIC ACID DELIVERY” (SANOFI VACCINES US INC., priority 2023, published 2026).

Test system: hEPO
Experiment: Delivery of hEPO mRNA by intramuscular administration of lipid nanoparticles; serum hEPO by ELISA
Assay type: in vivo, female BALB/cJ mice
Conditions: single IM 0.1 μg/An hEPO mRNA LNP, lipid formulation 1 (N/P 4), MC3 and SM-102 in formulation 2 (N/P 3); for hEPO 6 Hr Mean: 6 h post injection; for hEPO 24 Hr Mean: 24 h post injection
Description: The lipid nanoparticles in the examples of the present invention were formulated using Process A of WO 2018/089801 (see, e.g., Example 1 and FIG. 1 of WO 2018/089801). Process A (“A”) relates to a conventional method of encapsulating mRNA by mixing mRNA with a mixture of lipids, without first pre-forming the lipids into lipid nanoparticles. In an exemplary process, an ethanolic solution of a mixture of lipids (cationic lipid, phosphatidylethanolamine, cholesterol, and polyethylene glycol-lipid) at a fixed lipid to mRNA ratio were combined with an aqueous buffered solution of target mRNA at an acidic pH under controlled conditions to yield a suspension of uniform LNPs. After ultrafiltration and diafiltration into a suitable diluent system, the resulting nanoparticle suspensions were diluted to final concentration, filtered, and stored frozen at −80 °C until use.
Lipid nanoparticle formulations of Table C were prepared by Process A. All of the lipid nanoparticle formulations comprised hEPO mRNA and the different lipids (Cationic Lipid: DMG-PEG2000: Cholesterol: DOPE/DSPC) in the mol % ratios specified in Table C.
The cationic lipids of the present invention and lipid OF-02 were evaluated with lipid nanoparticle formulation 1. MC3 and SM-102 were evaluated with lipid nanoparticle formulation 2, which is a typical formulation for those lipids.
In summary, lipid screening studies were conducted with female BALB/cJ mice 6-8 weeks of age (Jax #000651). Mice were dosed with 0.1 μg in 30 μL of LNPs by a single intramuscular (IM) injection into the gastrocnemius leg muscle. Blood samples were taken 6 and 24 hours post injection and hEPO levels were measured in the blood serum of the mice using an ELISA assay according to the manufacture's protocol (R&D systems, Cat #DEP-00). WO2022/099003 A1 also describes an in vivo assay for intramuscular administration (e.g. on page 46, paragraph [00206]).

| Compound | hEPO 6 Hr Mean [ng/mL] | hEPO 24 Hr Mean [ng/mL] |
| --- | --- | --- |
| CCCCCCCCCCCOC(=O)CCCCCN(CCCCCCCC(=O)OC(CCCCCCCC)CCCCCCCC)CCCC(=O)OCCN1CCN(CCCCSSCCCCN(CC(O)CCCCCC(=O)OC(CCCCCCCC)CCCCCCCC)CC(O)CCCC(=O)OCCCCCCCCCCC)CC1 (stereo not shown) [Compound 13] | 29.5 | 13.8 |
| CCCCCCCCCCCOC(=O)CCCC(O)CN(CCCCSSCCCCN1CCN(CCOC(=O)CCCN(CC(O)CCCCCC(=O)OC(CCCCCCCC)CCCCCCCC)CC(O)CCCC(=O)OCCCCCCCCCCC)CC1)CC(O)CCCCCC(=O)OC(CCCCCCCC)CCCCCCCC (stereo not shown) [Compound 14] | 26.4 | 12.8 |
| CCCCCCCCCCCOC(=O)CCCCCN(CCCCCCCC(=O)OC(CCCCCCCC)CCCCCCCC)CCCC(=O)OCCN1CCN(CCCCSSCCCCN(CC(O)CCCCCC(=O)OC(CCCCCCCC)CCCCCCCC)CC2CCCC(=O)O2)CC1 (stereo not shown) [Compound 10] | 19.6 | 7.7 |
| CCCCCCCC/C=C\CCCCCCC(O)CN(CCCCSSCCCCN1CCN(CCOC(=O)CCCN(CC(O)CCCCCCCCCC)CC(O)CCCCCCCCCC)CC1)CC(O)CCCCCC(=O)OC(CCCCCCCC)CCCCCCCC (stereo not shown) [Compound 6] | 34.7 | 18.4 |
| CCCCCCCCC(CCCCCCCC)OC(=O)CCCCCC(O)CN(CCCC(=O)OCCN1CCN(CCCCSSCCCN(CC(O)CCCCC(=O)OCC(CC)CC)CC(O)CCCCC(=O)OCC(CC)CC)CC1)CC1CCCC(=O)O1 (stereo not shown) [Compound 11] | 18.7 | 10.1 |
| CCCCCCCCCCCOC(=O)CCCC(O)CN(CCCCSSCCCCN1CCN(CCOC(=O)CCCN(CC(O)CCCCCCCCCC)CC(O)CCCCCCCCCC)CC1)CC(O)CCCCCC(=O)OC(CCCCCCCC)CCCCCCCC (stereo not shown) [Compound 8] | 41.8 | 33.3 |
| CCCCC/C=C\C/C=C\CCCCCCCCC(CCCCCCCC/C=C\C/C=C\CCCCC)OC(=O)CCCN(C)C [MC3, reference compound] | 3.9 | 2.9 |
| CCCCCC/C=C\COC(=O)CCCCCCCN(CCCCCCCC(=O)OC(CCCCCCCC)CCCCCCCC)CCCCSSCCCCN1CCN(CCOC(=O)CCCN(CC(O)CCCCCCCCCC)CC(O)CCCCCCCCCC)CC1 (stereo not shown) [Compound 3] | 20.5 | 19.3 |
| CCCCCCCCCCC(O)CN(CCCC(=O)OCCN1CCN(CCCCSSCCCCN(CC(O)CCCC(=O)OC(CC)CC)CC(O)CCCC(=O)OC(CC)CC)CC1)CC(O)CCCCCCCCCC (stereo not shown) [Compound 17] | 19.7 | 10.4 |
| CCCCCCCCCCC(O)CN(CCCC(=O)OCCN1CCN(CCCCSSCCCCN(CC(O)CCCCC(=O)OCC(CC)CC)CC(O)CCCCC(=O)OCC(CC)CC)CC1)CC(O)CCCCCCCCCC (stereo not shown) [Compound 15] | 36 | 22.8 |
| CCCCCCCCCCC(O)CN(CCCC(=O)OCCN1CCN(CCCCSSCCCN(CC(O)CCCCC(=O)OCC(CC)CC)CC(O)CCCCC(=O)OCC(CC)CC)CC1)CC(O)CCCCCCCCCC (stereo not shown) [Compound 16] | 32.4 | 18.7 |
| CCCCC/C=C\C/C=C\CCCCCCC(O)CN(CCCCSSCCCCN1CCN(CCOC(=O)CCCN(CC(O)CCCCCCCCCC)CC(O)CCCCCCCCCC)CC1)CC(O)CCCCCC(=O)OC(CCCCCCCC)CCCCCCCC (stereo not shown) [Compound 7] | 31.4 | 25.8 |
| CCCCCCCCCCC(O)CN(CCCC(=O)OCCN1CCN(CCCCSSCCCN(CC(O)CCCC(=O)OC(CC)CC)CC(O)CCCC(=O)OC(CC)CC)CC1)CC(O)CCCCCCCCCC (stereo not shown) [Compound 18] | 18.2 | 9.2 |
| CCCCCC/C=C\COC(=O)CCCCCC(O)CN(CCCCSSCCCCN1CCN(CCOC(=O)CCCN(CC(O)CCCCCCCCCC)CC(O)CCCCCCCCCC)CC1)CC(O)CCCCCC(=O)OC(CCCCCCCC)CCCCCCCC (stereo not shown) [Compound 5] | 35 | 18.7 |
| CCCCCCCCCCCOC(=O)CCCCCN(CCO)CCCCCCCC(=O)OC(CCCCCCCC)CCCCCCCC [SM102, SM-102, reference compound] | 12.5 | 13.3 |
| CCCCCCCCCCCOC(=O)CCCCCN(CCCCCCCC(=O)OC(CCCCCCCC)CCCCCCCC)CCCCSSCCCCN1CCN(CCOC(=O)CCCN(CC(O)CCCCCCCCCC)CC(O)CCCCCCCCCC)CC1 (stereo not shown) [Compound 2] | 35.4 | 29.2 |
| CCCCCCCCCCCOC(=O)CCCC(O)CN(CCCC(=O)OCCN1CCN(CCCCSSCCCN(CC(O)CCCCC(=O)OCC(CC)CC)CC(O)CCCCC(=O)OCC(CC)CC)CC1)CC(O)CCCCCC(=O)OC(CCCCCCCC)CCCCCCCC (stereo not shown) [Compound 12] | 37.4 | 21 |
| CCCCCCCCCCCOC(=O)CCCCCN(CCCCCCCC(=O)OC(CCCCCCCC)CCCCCCCC)CCCC(=O)OCCN1CCN(CCCCSSCCCN(CC(O)CCCCC(=O)OCC(CC)CC)CC(O)CCCCC(=O)OCC(CC)CC)CC1 (stereo not shown) [Compound 9] | 24.3 | 15.7 |
| CCCCC/C=C\C/C=C\CCCCCCCCN(CCCCCCCC(=O)OC(CCCCCCCC)CCCCCCCC)CCCCSSCCCCN1CCN(CCOC(=O)CCCN(CC(O)CCCCCCCCCC)CC(O)CCCCCCCCCC)CC1 (stereo not shown) [Compound 4] | 18.8 | 12.1 |
| CCCCCCCC/C=C\CCCCCCCCN(CCCCCCCC(=O)OC(CCCCCCCC)CCCCCCCC)CCCCSSCCCCN1CCN(CCOC(=O)CCCN(CC(O)CCCCCCCCCC)CC(O)CCCCCCCCCC)CC1 (stereo not shown) [Compound 1] | 11 | 9.5 |
